Data reported in patent US7638540B2, “Benzofuran compound and medicinal composition containing the same” (The New Industry Research Organization, priority 2003, dated 2009).

| SMILES | melting point |
| --- | --- |
| COc1ccc2oc(-c3csc(-c4ccccc4)n3)c(-c3ccc(Cl)cc3)c2c1 [Example 215, 4-[3-(4-chlorophenyl)-5-methoxybenzofuran-2-yl]-2-phenylthiazole] | 151.3 to 153.3 °C |
| COc1cccc2c(NC(=O)CCl)c(C(C)=O)oc12 [Example 205, N-(2-acetyl-7-methoxybenzofuran-3-yl)-2-chloroacetamide] | 186.2 to 188.3 °C |
| CC(=O)c1oc2ccc(Br)cc2c1NC(=O)/C=C/CCc1ccccc1 [Example 175, (E)-5-phenyl-2-penteneoic acid (2-acetyl-5-bromobenzofuran-3-yl)amide] | 129 to 131 °C |
| Cc1oc2ccc(Br)cc2c1/C(Cl)=C/C=O [Example 151, (Z)-3-(5-bromo-2-methylbenzofuran-3-yl)-3-chloropropenal] | 99.8 to 104 °C |
| C/C(=C\C(=O)N1CCOCC1)c1ccc2oc(/C(C)=C/C(=O)O)cc2c1 [Example 136, (E,E)-3-[5-(1-methyl-3-morpholin-4-yl-3-oxopropenyl)benzofuran-2-yl]-2-butenoic acid] | 202.6 to 204.4 °C |
| Cc1nc(-c2cc3cc(Br)ccc3o2)cs1 [Example 216, 4-(5-bromobenzofuran-2-yl)-2-methylthiazole] | 167.4 to 167.9 °C |
| C/C=C/C(=O)Nc1c(C(C)=O)oc2c(OC)cccc12 [Example 185, (E)-2-butenoic acid (2-acetyl-7-methoxybenzofuran-3-yl)amide] | 165.7 to 168 °C |
| C/C(O)=C(\C#N)C(=O)Nc1c(C(=O)O)oc2ccccc12 [Example 92, (Z)-3-(2-cyano-3-hydroxy-2-butenoylamino)benzofurane-2-carboxylic acid] | 196.3 to 196.6 °C |
| C/C(O)=C(\C#N)C(=O)NC(C)c1cc2cccc(OCCCC(=O)O)c2o1 (centres unmarked) [Example 126, (Z)-4-{2-[1-(2-cyano-3-hydroxy-2-butenoylamino)ethyl]benzofuran-7-yloxy}butyric acid] | 147.9 to 148.6 °C |
| COc1ccc2oc(-c3csc(C)n3)c(-c3ccc(Cl)cc3)c2c1 [Example 217, 4-[3-(4-chlorophenyl)-5-methoxybenzofuran-2-yl]-2-methylthiazole] | 105.8 to 106.5 °C |
| C/C=C/C(=O)Nc1c(C(C)=O)oc2cc(OC)ccc12 [Example 116, (E)-N-(2-acetyl-6-methoxybenzofuran-3-yl)-2-butenamide] | 153.8 to 155.7 °C |
| C/C(O)=C(\C#N)C(=O)Nc1c(C#N)oc2ccccc12 [Example 105, (Z)-N-(2-cyanobenzofuran-3-yl)-2-cyano-3-hydroxy-2-butenamide] | 165.8 to 167.2 °C |
| CCNS(=O)(=O)c1ccc(OCCCC(=O)O)c2oc(C(C)NC(=O)/C(C#N)=C(\C)O)cc12 (centres unmarked) [Example 129, (E)-4-{2-[1-(2-cyano-3-hydroxy-2-butenoylamino)ethyl]-4-ethylsulfamoylbenzofuran-7-yloxy}butyric acid] | 169.3 to 170.2 °C |
| C/C=C/C(=O)Nc1c(C(=O)c2ccc(Cl)cc2)oc2ccc(Br)cc12 [Example 115, (E)-N-[5-bromo-2-(4-chlorobenzoyl)benzofuran-3-yl]-2-butenamide] | 210.4 to 212.8 °C |
| COc1ccc(CCNC(=O)/C=C(\C)c2cc3cccc(OC(c4ccccc4)c4ccccc4)c3o2)cc1OC [Example 47, (E)-3-(7-benzhydryloxybenzofuran-2-yl)-N-[2-(3,4-dimethoxyphenyl)ethyl]-2-butenamide] | 70.8 to 73.5 °C |
| C/C(O)=C(\C#N)C(=O)Nc1c(C(=O)c2ccc(C#N)cc2)oc2ccc(Br)cc12 [Example 100, (Z)-N-[5-bromo-2-(4-cyanobenzoyl)benzofuran-3-yl]-2-cyano-3-hydroxy-2-butenamide] | 269.3 to 271.2 °C |
| COc1ccc(/C=C/C(=O)c2oc3ccc(Br)cc3c2NC(=O)CCNCc2ccccc2)cc1 [Example 203, (E)-3-benzylamino-N-{5-bromo-2-[3-(4-methoxyphenyl)acryloyl]benzofuran-3-yl}propionamide] | 123.8 to 126.5 °C |
| CC(=O)c1oc2ccc(/C(C)=C/C(=O)N3CCOCC3)cc2c1N [Example 23, (E)-3-(2-acetyl-3-aminobenzofuran-5-yl)-1-morpholino-2-buten-1-one] | 256.4 to 262.1 °C |
| COc1cccc2c(NC(=O)/C=C/c3ccccc3)c(Cl)oc12 [Example 181, (E)-N-(2-chloro-7-methoxybenzofuran-3-yl)-3-phenylacrylamide] | 220 to 221.3 °C |
| CCN(CC)C(=O)/C=C(\C)c1ccc(OC(c2ccccc2)c2ccccc2)c2oc(C(C)=O)cc12 [Example 4, (E)-3-(2-acetyl-7-benzhydryloxybenzofuran-4-yl)-N,N-diethyl-2-butenamide] | 163.3 to 165.2 °C |
| N#Cc1oc2ccc(Br)cc2c1NC(=O)/C=C/c1ccccc1 [Example 122, (E)-N-(5-bromo-2-cyanobenzofuran-3-yl)-3-phenylacrylamide] | 240.2 to 242 °C |
| CCN(CC)C(=O)/C=C(\C)c1ccc2oc(C(C)=O)c(NC(=O)c3cnoc3C)c2c1 [Example 74, (E)-N-[2-acetyl-5-(2-diethylcarbamoyl-1-methylvinyl)benzofuran-3-yl]-5-methylisoxazole-4-carboxamide] | 170.3 to 174.1 °C |
| COc1cccc2c(NC(=O)/C(C#N)=C(/C)O)c(C(=O)c3ccc(Br)cc3)oc12 [Example 99, (Z)-N-[2-(4-bromobenzoyl)-7-methoxybenzofuran-3-yl]-2-cyano-3-hydroxy-2-butenamide] | 131.7 to 133.4 °C |
| C/C=C/C(=O)Nc1c(C(=O)/C=C/N(C)C)oc2ccc(Br)cc12 [Example 177, (E)-2-butenoic acid [5-bromo-2-(3-dimethylamino-(E)-acryloyl)benzofuran-3-yl]amide] | 247.5 to 249.5 °C |
| O=C(CCCl)Nc1c(C(=O)/C=C/c2ccccc2)oc2ccc(Br)cc12 [Example 201, (E)-N-[5-bromo-2-(3-phenylacryloyl)-benzofuran-3-yl]-3-chloropropionamide] | 204.7 to 206.8 °C |
| COc1ccc(CCNC(=O)/C=C(\C)c2ccc(C(=O)c3oc4c(OC)cccc4c3NC(=O)/C(C#N)=C(/C)O)cc2)cc1OC [Example 106, N-[2-(4-{(E)-2-[2-(3,4-dimethoxyphenyl)ethylcarbamoyl]-1-methylvinyl}benzoyl)-7-methoxybenzofuran-3-yl]-2-cyano-3-hydroxy-(Z)-2-butenamide] | 202.9 to 205.8 °C |
| Cc1nc(-c2oc3c(Cl)cccc3c2-c2ccc(Cl)cc2)cs1 [Example 214, 4-[7-chloro-3-(4-chlorophenyl)benzofuran-2-yl]-2-methylthiazole] | 156.4 to 158.4 °C |

Further lines, results first:

| melting point | SMILES |
| --- | --- |
| 88.1 to 90 °C | CCNS(=O)(=O)c1ccc(OCCCC(=O)OCC)c2oc(C(C)NC(=O)c3cnoc3C)cc12 (centres unmarked) [Example 125, Ethyl 4-(4-ethylsulfamoyl-2-{1-[(5-methylisoxazole-4-carbonyl)amino]ethyl}benzofuran-7-yloxy)butyrate] |
| 110.5 to 113.5 °C | CCN(CC)C(=O)/C=C(\C)c1ccc(OCCCSc2ccc(Cl)cc2)c2oc(C(C)=O)cc12 [Example 139, (E)-3-{2-acetyl-7-(3-(4-chlorophenylsulfanyl)propoxy)benzofuran-4-yl}-2-butenoic acid diethylamide] |
| 121 to 122.1 °C | CCNS(=O)(=O)c1ccc(OCCCC(=O)OCC)c2oc(C(C)NC(=O)/C(C#N)=C(\C)O)cc12 (centres unmarked) [Example 128, Ethyl (E)-4-{2-[1-(2-cyano-3-hydroxy-2-butenoylamino)ethyl]-4-ethylsulfamoylbenzofuran-7-yloxy}butyrate] |
| 265 °C | C/C(O)=C(\C#N)C(=O)Nc1c(C(N)=O)oc2ccccc12 [Example 101, (Z)-3-(2-cyano-3-hydroxy-2-butenoylamino)benzofurane-2-carboxamide] |
| 111.8 to 114.6 °C | COC(=O)COc1cccc2cc(C(C)NC(=O)c3cnoc3C)oc12 (centres unmarked) [Example 124, Methyl (2-{1-[(5-methylisoxazole-4-carbonyl)amino]ethyl}benzofuran-7-yloxy)acetate] |
| 109 to 113 °C | CCOC(=O)/C=C/C=C(\Cl)c1cc2cc(Br)ccc2o1 [Example 159, Ethyl (2E,4Z)-5-(5-bromobenzofuran-2-yl)-5-chloropenta-2,4-dienoate] |
| 239.2 to 241.9 °C | Cc1oncc1C(=O)Nc1c(C#N)oc2ccc(Br)cc12 [Example 85, N-(5-bromo-2-cyanobenzofuran-3-yl)-5-methylisoxazole-4-carboxamide] |
| 120 to 125 °C | COc1ccc(NC(=O)/C=C(\C)c2cc3cccc(OC(C)c4ccccc4)c3o2)cc1 (centres unmarked) [Example 172, (E)-3-[7-(1-phenylethoxy)benzofuran-2-yl]-2-butenoic acid (4-methoxyphenyl)amide] |
| 216 to 218 °C | CC(=O)c1oc2ccc(C#N)cc2c1NC(=O)/C(C#N)=C(/C)O [Example 93, (Z)-N-(2-acetyl-5-cyanobenzofuran-3-yl)-2-cyano-3-hydroxy-2-butenamide] |
| 128 to 130 °C | CC(=O)NC(C)c1cc2ccccc2o1 (centres unmarked) [Example 190, N-(1-benzofuran-2-ylethyl)acetamide] |
| 127.8 to 130 °C | C/C=C/C(=O)Nc1c(C(C)=O)oc2ccc(Br)cc12 [Example 123, (E)-N-(2-acetyl-5-bromobenzofuran-3-yl)-2-butenamide] |
| 219.6 to 220.3 °C | Cc1oncc1C(=O)Nc1c(C(=O)/C=C/c2ccccc2)oc2ccc(Br)cc12 [Example 173, (E)-5-methylisoxazole-4-carboxylic acid [5-bromo-2-(3-phenylacryloyl)benzofuran-3-yl]amide] |
| 236.3 to 238.9 °C | Cc1oncc1C(=O)Nc1c(C(=O)c2ccc(C#N)cc2)oc2ccc(Br)cc12 [Example 73, N-[5-bromo-2-(4-cyanobenzoyl)benzofuran-3-yl]-5-methylisoxazole-4-carboxamide] |
| 138.9 to 141.8 °C | CC(=O)c1cc2cc(/C(C)=C/C(=O)N3CCOCC3)ccc2o1 [Example 27, (E)-3-(2-acetylbenzofuran-5-yl)-1-morpholino-2-buten-1-one] |
